Source: article PMC9945177, “Nature-Derived Epoxy Resin Monomers with Reduced Sensitizing Capacity—Isosorbide-Based Bis-Epoxides” (Chemical Research in Toxicology, 2023)

Tests used:
[1] = skin permeability, static Franz diffusion cells; type: in vitro ADME, pig
Method: For the permeability experiments, ultra-performance liquid chromatography-electrospray ionization tandem mass spectroscopy (UPLC)-ESI-MS/MS analysis was carried out using a Xevo TQ-S micro triple quadrupole mass spectrometer equipped with an electrospray interface and coupled to an Acquity UPLC H-Class Plus system from Waters. Separation was achieved on an ACE Excel C18-PFP column (75 × 2.1 mm, 1.7 μm) from Advanced Chromatography Technologies Ltd. (Aberdeen, Scotland). Mobile phase A consisted of 0.1% formic acid and 5% acetonitrile in water, whereas mobile phase B consisted of 0.1% formic acid and 5% water in acetonitrile. The gradient program used was as follows: 20% B (0–2 min), 20–80% B (2–9 min), 80–95% B (9–9.1 min), 95% B (9.1–12 min), 95–20% B (12–12.1 min), 20% B (12.1–15 min). The flow rate was set to 0.3 mL/min and the injection volume was 2 μL. Analysis was performed in positive ionization mode using a Multiple Reaction Monitoring (MRM) method. The optimal parameters were capillary voltage 1.5 (kV), desolvation temperature 650 °C, desolvation gas 850 L/h, and cone 100 L/h.
The Franz diffusion cell experiment was based on the OECD Test Guidelines.[35] Static Franz diffusion cells equipped with pig ex vivo epidermis were used to assess the permeability of isosorbide bis-epoxides 2 and 3. Freshly cut pig ears were received frozen and stored at −20 °C until used for permeability assessment. One day before the experiment, the ears were transferred at +4 °C and allowed to thaw. The ears were then washed, shaved, and carefully cut with a Watson Dermatome skin graft knife to obtain 0.1 mm pieces of the epidermis layer. The integrity of the skin (transparent and intact) was determined by ocular inspection. Thereafter, the epidermis layer was cut and positioned between the donor and receptor compartment of each Franz cell. The receptor compartments were filled with 5 mL of ethanol/PBS (1:1) and equipped with a small magnetic stir bar to ensure mixing while maintaining a constant temperature of the circulating water at 37 °C. To equilibrate the skin, the upper chamber was filled with 0.5 mL of ethanol/PBS (1:1) which was later removed and replaced with the donor solution (50 μL) containing either 2 or 3 (0.1 mg/mL) or DGEBA (0.1 mg/mL) used as a positive control. A procedural blank containing only 50 μL of ethanol/PBS (1:1) in the donor compartment was also included in the experimental setup. Samples of 100 μL were collected after 0–2 min, 1, 2, 3, 4, 5, and 6 h. At each timepoint, a sample aliquot was removed and 100 μL of ethanol/PBS (1:1) was added to the receptor compartment to keep the volume constant. After 6 h, the skin from each Franz cell was extracted overnight in 5 mL of ethanol/PBS (1,1). Triplicate experiments were performed for each compound. The obtained samples were analyzed with UPLC-ESI-MS/MS (see Figure S2 for parameters) and quantification was based on external calibration curves. The limit of quantification (LOQ) was determined by the analysis of the analyte at low concentration and was calculated as 10 times the signal-to-noise ratio.

[2] = set-up: method as in Ponting et al. 26; settings: polymer, TGA under nitrogen; ref Ponting et al. 26; cited from earlier work
Female CBA/Ca mice = settings: cited from earlier work
guinea pig = settings: cited from earlier work
[3] = Extract: skin extracted overnight after 6 h

CC(C)(c1ccc(OCC2CO2)cc1)c1ccc(OCC2CO2)cc1 (stereo not drawn) [DGEBA, diglycidyl ether of bisphenol A, reference compound]
permeation of epidermis ([1]; 6 h experiment, donor 0.1 mg/mL): observed | Average (µM) [1, 3]: 0.206 µM | Average (µg/ml) [1, 3]: 0.0700 µg/mL | Replicate 1 [1, 3]: 0.0658 µg/mL | Replicate 2 (µg/ml) [1, 3]: < LOQ | Replicate 3 [1, 3]: 0.0742 µg/mL | recovery at 6 h, 0.1 mg/mL ([1]; pig, w/w %, sum of receptor compartment after 6 h and overnight skin extraction): 35% | Average (µM) ([1]; receptor fluid, timepoint 0 h): 0 µM | Average (µg/ml) ([1]; receptor fluid, timepoint 0 h): 0 µg/mL | Replicate 1 (µg/ml) ([1]; receptor fluid, timepoint 0 h): < LOQ | Replicate 2 (µg/ml) ([1]; receptor fluid, timepoint 0 h): < LOQ | Replicate 3 (µg/ml) ([1]; receptor fluid, timepoint 0 h): < LOQ | Average (µM) ([1]; receptor fluid, timepoint 1 h): 0 µM | Average (µg/ml) ([1]; receptor fluid, timepoint 1 h): 0 µg/mL | Replicate 1 (µg/ml) ([1]; receptor fluid, timepoint 1 h): < LOQ | Replicate 2 (µg/ml) ([1]; receptor fluid, timepoint 1 h): < LOQ | Replicate 3 (µg/ml) ([1]; receptor fluid, timepoint 1 h): < LOQ | Average (µM) ([1]; receptor fluid, timepoint 2 h): 0.595 µM | Average (µg/ml) ([1]; receptor fluid, timepoint 2 h): 0.203 µg/mL | Replicate 1 ([1]; receptor fluid, timepoint 2 h): 0.315 µg/mL | Replicate 2 ([1]; receptor fluid, timepoint 2 h): 0.184 µg/mL | Replicate 3 ([1]; receptor fluid, timepoint 2 h): 0.108 µg/mL | Average (µM) ([1]; receptor fluid, timepoint 3 h): 0.818 µM | Average (µg/ml) ([1]; receptor fluid, timepoint 3 h): 0.278 µg/mL | Replicate 1 ([1]; receptor fluid, timepoint 3 h): 0.419 µg/mL | Replicate 2 ([1]; receptor fluid, timepoint 3 h): 0.239 µg/mL | Replicate 3 ([1]; receptor fluid, timepoint 3 h): 0.177 µg/mL | Average (µM) ([1]; receptor fluid, timepoint 4 h): 0.868 µM | Average (µg/ml) ([1]; receptor fluid, timepoint 4 h): 0.296 µg/mL | Replicate 1 ([1]; receptor fluid, timepoint 4 h): 0.456 µg/mL | Replicate 2 ([1]; receptor fluid, timepoint 4 h): 0.229 µg/mL | Replicate 3 ([1]; receptor fluid, timepoint 4 h): 0.202 µg/mL | Average (µM) ([1]; receptor fluid, timepoint 5 h): 0.851 µM | Average (µg/ml) ([1]; receptor fluid, timepoint 5 h): 0.290 µg/mL | Replicate 1 ([1]; receptor fluid, timepoint 5 h): 0.436 µg/mL | Replicate 2 ([1]; receptor fluid, timepoint 5 h): 0.237 µg/mL | Replicate 3 ([1]; receptor fluid, timepoint 5 h): 0.196 µg/mL | Average (µM) ([1]; receptor fluid, timepoint 6 h): 0.817 µM | Average (µg/ml) ([1]; receptor fluid, timepoint 6 h): 0.278 µg/mL | Replicate 1 ([1]; receptor fluid, timepoint 6 h): 0.406 µg/mL | Replicate 2 ([1]; receptor fluid, timepoint 6 h): 0.218 µg/mL | Replicate 3 ([1]; receptor fluid, timepoint 6 h): 0.210 µg/mL | amount in receptor fluid after 6 h (%) ([1]; w/w %): 27.8 ± 9.0% | amount on/in skin (%) ([1]; w/w %, overnight skin extraction after 6 h): 7.0 ± 0.4% | recovery (%) ([1]; w/w %, sum of receptor compartment after 6 h and overnight skin extraction): 34.8 ± 9.4% | Ea (activation energy for the decomposition of the cured epoxy resins) [2]: 40.2 kcal/mol | IDT (initial decomposition temperature) [2]: 358 °C | Rmax (maximum weight loss rate) [2]: –2.17 %/°C | Tmax (temperature at the maximum rate of weight loss) [2]: 408 °C | EC3 (Female CBA/Ca mice): 0.036 M | skin sensitizer classification in guinea pig maximization test (guinea pig): strong
